Results: US20180185408A1, “ANTIFUNGAL NYLON-3 POLYMERS AND COMBINATION THERAPY USING THEM TO TREAT FUNGAL INFECTIONS” (priority 2016, published 2018)
Converted amounts (≈) assume the structure as drawn. “And” between values parts separate entries of the source, which are not always exact repeats. Equal entries are not always repeated. Where two headings read alike, the source gives them in different places.

Key:
Type in all cases: cell-based
Cryptococcus neoformans [1] = test: MIC by broth microdilution (CLSI M27-A3); settings: for MIC: […]10^3 cells/mL
Cryptococcus gattii [2] = test: MIC by broth microdilution (CLSI M27-A3); settings: Cryptococcus gattii, […]10^3 cells/mL, read-out: MIC
filamentous fungi = test: MIC100 against non-Aspergillus filamentous fungi (CLSI M38-A2); settings: Cryptococcus depauperatus, CBS7855; Filobasidiella depauperata isolate CBS 7855; 50% reduction in growth
Candida albicans [3] = test: MIC by broth microdilution (CLSI M27-A3); parameters: polymer efficacy against budding yeasts, 50%: unit not given here; settings: for MIC: read-out: MIC
Candida lusitaniae [4] = test: MIC by broth microdilution (CLSI M27-A3)
Cryptococcus neoformans [5] = test: Minimum fungicidal concentration (MFC), plating after MIC assay
Cryptococcus gattii [6] = test: as above; settings: Cryptococcus gattii, Sensitive, RPMI 1640 (0.2% Glucose), […]10^3 cells/mL, 37° C., read-out: MFC
Cryptococcus spp. = test: MIC and MFC by broth microdilution, summary over Cryptococcus strains
Candida spp. = test: MIC and MFC by broth microdilution, summary over Candida strains
Candida lusitaniae [7] = test: Minimum fungicidal concentration (MFC), plating after MIC assay; settings: Clavispora lusitaniae, C. Lusitania (CL3), Sensitive; RPMI 1640 (0.2% Glucose); […]10^5 cells/mL; 30° C.; read-out: MFC
Candida albicans [8] = test: as above

OC(Cn1cncn1)(Cn1cncn1)c1ccc(F)cc1F [FLC, fluconazole]
polymer efficacy against budding yeasts, 50% (Cryptococcus neoformans [1]): >64 | polymer efficacy against budding yeasts, 50% (Cryptococcus neoformans [1]; C. neoformans CN1, Clinical isolate, Azole susceptible): 4 | MIC (Cryptococcus neoformans [1]; Cryptococcus neoformans, 48 h, C21F3, 30°C, OD600 48 h): 1.6 µg/mL | MIC (Cryptococcus neoformans [1]; Cryptococcus neoformans, 48 h, C21F3, 30°C, OD600 48 h, Table 15): 5.2 µM | MIC (Cryptococcus neoformans [1]; Cryptococcus neoformans, 48 h, H99, 30°C, OD600 48 h): 3.1 µg/mL | MIC (Cryptococcus neoformans [1]; Cryptococcus neoformans, 48 h, H99, 30°C, OD600 48 h, Table 15): 10.1 µM | MIC (Cryptococcus neoformans [1]; Cryptococcus neoformans, 48 h, JEC21, 30°C, OD600 48 h): 1.6 µg/mL | MIC (Cryptococcus neoformans [1]; Cryptococcus neoformans, 48 h, JEC21, 30°C, OD600 48 h, Table 15): 5.2 µM | MIC (Cryptococcus neoformans [1]; Cryptococcus neoformans, C. neoformans (C21F3), 30°C): 5.2 µM | MIC (Cryptococcus neoformans [1]; Cryptococcus neoformans, C. neoformans (H99), Sensitive, RPMI 1640 (0.2% Glucose), 37° C.): 3.1 µg/mL | MIC (Cryptococcus neoformans [1]; Cryptococcus neoformans, C. neoformans (H99), 30°C): 10.1 µM | MIC (Cryptococcus neoformans [1]; Cryptococcus neoformans, C. neoformans (JEC21), Sensitive, RPMI 1640 (0.2% Glucose), 37° C.): 1.6 µg/mL | MIC (Cryptococcus neoformans [1]; Cryptococcus neoformans, C. neoformans (JEC21), 30°C): 5.2 µM | MIC50 (Cryptococcus neoformans [1]; Cryptococcus neoformans, Cryptococcus neoformans CN1): 4 µg/mL (≈ 13.1 µM) | MIC (Cryptococcus gattii [2]; 48 h, C751, 30°C, OD600 48 h, Table 15): 5.2 µM | MIC (Cryptococcus gattii [2]; 48 h, C751, 30°C, OD600 48 h): 1.6 µg/mL | MIC (Cryptococcus gattii [2]; 48 h, WM276, 30°C, OD600 48 h, Table 15): 2.6 µM | MIC (Cryptococcus gattii [2]; 48 h, WM276, 30°C, OD600 48 h): 0.8 µg/mL | MIC (Cryptococcus gattii [2]; C. gattii (C751), Sensitive, RPMI 1640 (0.2% Glucose), 37° C.): 1.6 µg/mL | MIC (Cryptococcus gattii [2]; C. gattii (C751), 30°C): 5.2 µM | MIC (Cryptococcus gattii [2]; C. gattii (WM275), Sensitive, RPMI 1640 (0.2% Glucose), 37° C.): 0.8 µg/mL | MIC (Cryptococcus gattii [2]; C. gattii (WM276), 30°C): 2.6 µM | MIC50 (filamentous fungi): 64 µg/mL (≈ 209 µM) | MIC50 (Candida albicans [3]; ATCC90028, Candida albicans ATCC 90028): 1 µg/mL (≈ 3.27 µM) | polymer efficacy against budding yeasts, 50% (Candida albicans [3]; C. albicans CA1, ATCC90028, Blood): 1 | polymer efficacy against budding yeasts, 50% (Candida albicans [3]; C. albicans CA2, SC5314): 0.25 | polymer efficacy against budding yeasts, 50% (Candida albicans [3]; C. albicans CA3, Blood, Azole resistant): >64 | MIC50 (Candida albicans [3]; Candida albicans CA3, Resistance Azole): > 64 µg/mL | MIC (Candida albicans [3]; Candida albicans, C. albicans (E4), Amp B Resistant, RPMI 1640 (0.2% Glucose), […]10^5 cells/mL, 30° C.): > 200 µg/mL | MIC (Candida albicans [3]; Candida albicans, C. albicans (E4), […]10^3 cells/mL, 35°C): > 654 µM | MIC (Candida albicans [3]; Candida albicans, C. albicans (Gu5), Fluconazole Resistant, RPMI 1640 (0.2% Glucose), […]10^5 cells/mL, 30° C.): > 200 µg/mL | MIC (Candida albicans [3]; Candida albicans, C. albicans (Gu5), […]10^3 cells/mL, 35°C): > 654 µM | MIC (Candida albicans [3]; Candida albicans, C. albicans (K1), Fluconazole Resistant, RPMI 1640 (0.2% Glucose), […]10^5 cells/mL, 30° C.): > 200 µg/mL | MIC (Candida albicans [3]; Candida albicans, C. albicans (K1), […]10^3 cells/mL, 35°C): > 654 µM | MIC (Candida albicans [3]; Candida albicans, C. albicans (SCG5314), Sensitive, RPMI 1640 (0.2% Glucose), […]10^5 cells/mL, 30° C.): < 0.2 µg/mL | MIC50 (Candida albicans [3]; Candida albicans, SC5314): 0.25 µg/mL (≈ 0.816 µM) | MIC (Candida albicans [3]; Candida albicans, SC5314, C. albicans (SC5314), […]10^3 cells/mL, 35°C): > 654 µM | MIC (Candida lusitaniae [4]; CL3, […]10^3 cells/mL, 35°C, OD600 24 h, avg., listed as FLU): >200 µg/mL | MIC (Candida lusitaniae [4]; CL3, […]10^3 cells/mL, 35°C, OD600 24 h, avg., listed as FLU, read-out: MIC): >653.0 µM | MIC (Candida lusitaniae [4]; CL3, […]10^3 cells/mL, 35°C, OD600 24 h, trial 2, listed as FLU): >200 µg/mL | MIC (Candida lusitaniae [4]; CL3, […]10^3 cells/mL, 35°C, OD600 24 h, trial 2, listed as FLU, read-out: MIC): >653.0 µM | MIC (Candida lusitaniae [4]; CL3, […]10^5 cells/mL, 30°C, OD600 48 h, avg., listed as FLU): 0.8 µg/mL | MIC (Candida lusitaniae [4]; CL3, […]10^5 cells/mL, 30°C, OD600 48 h, avg., listed as FLU, read-out: MIC): 2.6 µM | MIC (Candida lusitaniae [4]; CL3, […]10^5 cells/mL, 30°C, OD600 48 h, trial 2, listed as FLU): 0.8 µg/mL | MIC (Candida lusitaniae [4]; CL3, […]10^5 cells/mL, 30°C, OD600 48 h, trial 2, listed as FLU, read-out: MIC): 2.6 µM | MIC (Candida lusitaniae [4]; Clavispora lusitaniae, 24 h, read-out: MIC): > 200 µg/mL and > 653 µM | MIC (Candida lusitaniae [4]; Clavispora lusitaniae, 48 h, read-out: MIC): 0.8 µg/mL and 2.6 µM | concentration at which strain was killed (MFC) (Cryptococcus neoformans [5]; C21F3): ~5 µM | MFC (Cryptococcus neoformans [5]; Cryptococcus neoformans, C. neoformans (C21F3), Rapamycin Resistant, RPMI 1640 (0.2% Glucose), […]10^3 cells/mL, 37° C.): 1.6 µg/mL (≈ 5.22 µM) | MFC (Cryptococcus gattii [6]; C. gattii (C751)): 37.5 µg/mL (≈ 122 µM) | MFC (Cryptococcus gattii [6]; C. gattii (WM275)): > 100 µg/mL | MIC (Cryptococcus spp.; Cryptococcus): ≤ 10 µM | MFC (Cryptococcus spp.; Cryptococcus test strains (FLC: all strains except C21F3), read-out: MFC): > 100 µM | MFC (Candida spp.; Candida resistant strains (totally resistant)): > 654 µM | MIC and MFC values (Candida spp.; Candida sensitive strains): low μM | MFC (Candida lusitaniae [7]): 50 µg/mL (≈ 163 µM) | MFC (Candida albicans [8]; C. albicans (E4), Amp B Resistant, RPMI 1640 (0.2% Glucose), […]10^5 cells/mL, 30° C.): >200 µg/mL | MFC (Candida albicans [8]; C. albicans (Gu5), Fluconazole Resistant, RPMI 1640 (0.2% Glucose), […]10^5 cells/mL, 30° C.): >200 µg/mL | MFC (Candida albicans [8]; C. albicans (K1), Fluconazole Resistant, RPMI 1640 (0.2% Glucose), […]10^5 cells/mL, 30° C.): >200 µg/mL | MFC (Candida albicans [8]; C. albicans (SCG5314), Sensitive, RPMI 1640 (0.2% Glucose), […]10^5 cells/mL, 30° C.): >200 µg/mL | MFC (Candida albicans [8]; Candida albicans, SC5314, read-out: MFC): > 200 µg/mL and > 653 µM | MFC (Candida albicans [8]; Candida albicans, read-out: MFC): > 200 µg/mL and > 653 µM | MFC (Candida albicans [8]; E4, […]10^5 cells/mL, 30°C, avg., listed as FLU): >200 µg/mL | MFC (Candida albicans [8]; E4, […]10^5 cells/mL, 30°C, avg., listed as FLU, read-out: MFC): >653 µM | MFC (Candida albicans [8]; E4, […]10^5 cells/mL, 30°C, trial 1, listed as FLU): >200 µg/mL | MFC (Candida albicans [8]; E4, […]10^5 cells/mL, 30°C, trial 1, listed as FLU, read-out: MFC): >653 µM | MFC (Candida albicans [8]; E4, […]10^5 cells/mL, 30°C, trial 2, listed as FLU): >200 µg/mL | MFC (Candida albicans [8]; E4, […]10^5 cells/mL, 30°C, trial 2, listed as FLU, read-out: MFC): >653 µM | MFC (Candida albicans [8]; Gu5, […]10^5 cells/mL, 30°C, avg., listed as FLU): >200 µg/mL | MFC (Candida albicans [8]; Gu5, […]10^5 cells/mL, 30°C, avg., listed as FLU, read-out: MFC): >653 µM | MFC (Candida albicans [8]; Gu5, […]10^5 cells/mL, 30°C, trial 1, listed as FLU): >200 µg/mL | MFC (Candida albicans [8]; Gu5, […]10^5 cells/mL, 30°C, trial 1, listed as FLU, read-out: MFC): >653 µM | MFC (Candida albicans [8]; Gu5, […]10^5 cells/mL, 30°C, trial 2, listed as FLU): >200 µg/mL | MFC (Candida albicans [8]; Gu5, […]10^5 cells/mL, 30°C, trial 2, listed as FLU, read-out: MFC): >653 µM | MFC (Candida albicans [8]; K1, […]10^5 cells/mL, 30°C, avg., listed as FLU): >200 µg/mL | MFC (Candida albicans [8]; K1, […]10^5 cells/mL, 30°C, avg., listed as FLU, read-out: MFC): >653 µM | MFC (Candida albicans [8]; K1, […]10^5 cells/mL, 30°C, trial 2, listed as FLU): >200 µg/mL | MFC (Candida albicans [8]; K1, […]10^5 cells/mL, 30°C, trial 2, listed as FLU, read-out: MFC): >653 µM | MFC (Candida albicans [8]; SC5314, […]10^5 cells/mL, 30°C, avg., listed as FLU): >200 µg/mL | MFC (Candida albicans [8]; SC5314, […]10^5 cells/mL, 30°C, avg., listed as FLU, read-out: MFC): >653 µM | MFC (Candida albicans [8]; SC5314, […]10^5 cells/mL, 30°C, trial 1, listed as FLU): >200 µg/mL | MFC (Candida albicans [8]; SC5314, […]10^5 cells/mL, 30°C, trial 1, listed as FLU, read-out: MFC): >653 µM
